The test system of data set [1] is oxygen consumption of the myocardium. Briefly: oxygen consumption of the myocardium (rate-pressure product). In kind it is in vivo. Conditions: anaesthetized dog, 10 mg/kg intravenous, 100 before administration. Here is the method: This comparative trial aimed at determining the respective capabilities of the two substances to reduce the oxygen consumption of the myocardium. This property was measured by the indirect method known as the "rate-pressure product" which is a widely used and accurate haemodynamic index of myocardial oxygen consumption.
This method requires two cardiovascular parameters to be measured simultaneously, namely the mean aortic systolic blood-pressure and the heart-rate.
The "rate-pressure product" is obtained by multiplying the number of heart beats per minute by the mean aortic systolic blood-pressure. This provides an index of the total amount of oxygen used by the myocardium over a period of one minute. As it thus represents an accurate indication of the oxygen consumption of the myocardium, any lowering of the "rate-pressure product" indicates a corresponding drop in the oxygen consumption of the myocardium.
These tests were carried out on dogs which had been previously anaesthetized with sodium pentobarbital (30 mg/kg by intravenous route).
In both cases, the injection of 10 mg/kg took 2 minutes to administer.

In data set [2] the test system is myocardium. To be noted: background; cited from earlier work.
Data set [3] relates to patient. To be noted: clinical use; background; cited from earlier work.

“Also recorded” adds a separate entry of the source.

Take `CCCCc1oc2ccccc2c1C(=O)c1cc(I)c(OCCN(CC)CC)c(I)c1` [Amiodarone, reference compound]: the “Oxygen Consumption (rate-pressure product)” value (from here on “Oxygen Consumption”) in data set [1] (2.5 minutes after) came out at 80.9; in data set [1] (5 minutes after), 79.1; in data set [1] (10 minutes after), 81.7; in data set [1] (15 minutes after), 79.7; in data set [1] (20 minutes after), 79.6; in data set [1] (25 minutes after), 80.4. For the same molecule, the “Oxygen Consumption” value was found to be 80.2 in data set [1] (30 minutes after); 79.6 in data set [1] (35 minutes after); 79.6 in data set [1] (40 minutes after); 79.6 in data set [1] (45 minutes after); 80.9 in data set [1] (50 minutes after); 80.0 in data set [1] (55 minutes after). Also, the “Oxygen Consumption” value in data set [1] (60 minutes after) turned out to be 79.1. Also, the “four qualities of an ideal anti-anginal agent” value in data set [2] is listed as “possesses the four qualities”. Also, in data set [3], the side-effects entry is reported as “microdeposit in the cornea; also recorded: in a few rare cases, the development of a cutaneous sensitivity to light which can lead to a slate-coloured pigmentation of the skin; also recorded: dysfunction of the thyroid gland”.
